# Reference: patent publication US20230381139A1, “METHODS OF TREATING AND/OR PREVENTING ALZHEIMER’S DISEASE WITH R-CARVEDILOL” (priority 2020, published 2023)
# Assays:
# [1] = tested on: Kv4.2/KChIP4 channel complex; assay: Whole-cell A-type K+ current recording in Kv4.2/KChIP4 transfected HEK293 cells expressing RyR2 WT; assay type: cell-based; conditions: caffeine 2.5 mM, 2 min after application vs baseline
# Method: Previous studies used whole-cell patch clamp recordings at the soma of CA1 pyramidal cells to measure the whole-cell A-type K^+ current (Chen, 2005; Good et al., 1996; Hall et al., 2015; Scala et al., 2015). To make comparisons to earlier studies, the same approach was employed. Briefly, whole-cell A-type K^+ current (IA) was elicited by depolarizing pulses to +40 mV from a holding potential of −100 mV in the presence of 20 mM tetraethylammonium (TEA) and 100 nM tetrodotoxin (TTX). In steady-state activation experiments, membrane potential was held at −100 mV, and IA was evoked by a 200-ms depolarizing pulse from a first pulse potential of −80 mV to +80 my in 10-mV steps at 10-s intervals, Data were analyzed using the equation GK=IK/(Vm−Vrev), where GK is the membrane K^+ conductance, Vm is the membrane potential, and Vrev is the reversal potential for K^+. To study steady-state inactivation of IA, currents were elicited using 1-s conditioning pre-pulses from −110 mV to 0 mV before a 200-ms test pulse of +50 mV. After normalizing each current amplitude to the maximal current, amplitude obtained from the −110 mV pre-pulse was used as a function of the conditioning pre-pulse potential and fitted with the function IA/IA−max=1/(1+exp((Vm1/2−Vm)/k)), from which, an inactivation curve of IA was obtained, and the VH value (the voltage at which the current amplitude was half-inactivated) was calculated. The somatic whole-cell recordings provide information on the magnitude of somatic A-type K^+ current, an important determinant of somatic excitability.
# For HEK293 cell experiments, HEK293 cell lines were maintained as previously described (Jiang et al., 2004) and transiently transfected with cDNAs of Kv4.2 and KChIP4 together with cDNA encoding for GFP to identify cells successfully transfected. 12-16 h before recording, tetracycline was added to culture media to induce the expression of RyR2 WI or RyR2 E4872Q mutant. IA was recorded with the same protocols as described above. Prior to IA recording, the culture medium was replaced with a bath solution (NaCl, 125 mM; KCl, 2.5 mM; HEPES, 10 mM; MgCl2, 1 mM; glucose, 10 mM; TEA, 20 mM; pH 7.4 adjusted with NaOH).
# [2] = tested on: 5×FAD+/− CA1 pyramidal neurons; assay: Whole-cell patch-clamp recording of action potential firing in 5×FAD+/− CA1 pyramidal neurons in brain slices; assay type: cell-based, mouse; conditions: 10 μM, 3-4 months old 5×FAD+/− CA1 pyramidal neurons
# Method: Acute brain slices were prepared according to the published procedures with some modifications (Ting et al., 2014; Ting et al., 2018).
# For whole-cell patch-clamp recordings, slices were transferred to a submerged recording chamber perfused with carbogenated external solutions at a flow rate of 4-6 mL/min at room temperature. Action potentials (APs) were measured in hippocampal CA1 pyramidal neurons in transverse hippocampal slices (260 μm) from all genotypes of 3-4 months old mice using whole-cell patch-clamp with an […] amplifier (Axon Instruments). […] Membrane potentials in 5-6 months old or older neurons were not measured as aged neurons are difficult to patch. AP firing was recorded in an external solution (NaCl, 124 mM; KCl, 2.5 mM; NaH2PO4, 1.25 mM; NaHCO3, 24 mM; HEPES, 5 mM; glucose, 12.5 mM; MgCl2, 2 mM; and CaCl2, 2 mM; pH 7.4 adjusted with NaOH) and soft-glass recording pipettes (Sutter Instruments; Novato CA) filled with an internal solution (potassium gluconate, 135 mM, KCl, 10 mM, HEPES, 10 mM, CaCl2, 1 mM, MgCl2, 1 mM, EGTA, 10 mM, ATP, 1 mM, GTP, 0.1 mM, and pH 7.3 adjusted with KOH). […] For spontaneous AP recording, cells were hold at −70 mV and recorded for 3 min. […] For testing the Kv4 channel agonist NS5806, APs were measured before and 15 min after perfusion of 10 μM NS5806 in the external solution. […]
# 5×FAD+/− mice = assay: Learning and memory tests (Morris water maze, novel object recognition) in 5×FAD+/− mice; assay type: in vivo, mouse; conditions: 3.2 mg/kg/day for one month started at 2-3 months of age (before AD symptoms), tested at 3-4 months; vs DMSO
# Method: (§1) Adult genetically engineered mice, 5×FAD^+/− (Oakley et al., 2006), RyR2-E4872Q^+/− (EQ^+/−) (Chen et al., 2014), 5×FAD^+/−/RyR2-E4872Q^+/− (5×FAD^+/−/EQ^+/−), and wildtype (WT) littermates of both sexes were used. R-carvedilol (R-CV) (at doses of 0.8, 1.6 or 3.2 mg/kg/day), racemic carvedilol (3.2 mg/kg/day), and vehicle control (DMSO) were delivered to 5×FAD^+/− mice in drinking water for one month, starting at different ages before (2-3 months old) or after (3-4 months old) the occurrence of AD pathologies (Oakley et al., 2006). To assess the effects of genetically and pharmacologically limiting RyR2 open time on the prevention and rescue of AD deficits in different stages (early, moderate, and late) of AD progression, animals at different ages (from 2-15 months) were used. As reported (Oakley et al., 2006), there was an age-dependence of AD progression in the 5×FAD^+/− mice. No sex-dependent differences in AD progression in these mice was observed. For 2-photon Ca^2+ imaging experiments, 5×FAD, RyR2 WT, and RyR2 mutant mice were cross-bred with the heterozygous Thy1-GCaMP6f transgenic mice (Chen et al., 2012; Chen et al., 2013) (GP5.17, JAX 025393) to express the GCaMP6f Ca^2+ sensing probe (driven by the Thy1 promotor) in hippocampal neurons in each of the genotypes used.
# The learning and memory of mice with all genotypes were evaluated using the Morris water maze (MWM) test, the Barnes maze (BM) test, and/or the novel object recognition (NOR) test. Experiments were carried out blindly. For the MWM test, mice at different ages were trained to localize a hidden escape platform (10×10 cm) in a circular pool (116.84 cm in diameter, 50 cm in depth) (San Diego Instruments, CA) via distal visual cue. The platform was submerged 1-2 cm beneath the surface in water (22-24°C.), which was rendered opaque by addition of milk powder. The localization of the pool in relation to visual cues was maintained constantly during the entire task. The cues were distinct in color and shape. Digital division of the tracking area (pool) into four quadrants was performed by the SMART video tracking system, Smart 3.0 (Panlab Harvard Apparatus; Barcelona Spain). The escape platform was placed in the centre of the south-west quadrant for the entirety of the learning phase (4 training days) and digitally defined as target. Spatial training consisted of 4 days with 5 trials per mouse per day. Mice were released with their heads facing the pool wall at one of four entry locations (north, east, south and west) in a non-repetitive random order. Swimming was automatically video-tracked until the subject found the escape platform and remained on it (≥5 sec), or until a maximum of 60 seconds. […] In between trials (inter-trial interval ≥10 min), mice were housed in heated cages to avoid performance deficits due to exhaustion or hypothermia. The latency and swimming speed to reach the escape platform were recorded for comparison. After the learning phase, memory retention was evaluated by one probe trial 24 hours after the last training session. The escape platform was removed before mice were released from the north entry point into the pool. Their swimming was video-tracked for 60 seconds. The area at the location of the removed hidden platform was defined as the target and the south-west quadrant the target quadrant. The percentage of time mice spent in the target quadrant (including the target) were measured for comparison.
# For the NOR test, mice were habituated for 10 min per mouse in an equally illuminated, odor-free, white, plastic box (40×40×50 cm^3) embedded with fresh aspen shavings and shreds. In between each mouse trial the box was wiped with ethanol to avoid odor-induced stress. 24 hours after habituation, two identical objects ware placed at equal distance to each other and the corners of the box. Each mouse was placed into the center, and allowed to move freely for 10 min. Mice were video recorded during this familiarizing phase. […]
# [3] = tested on: hippocampal CA3-CA1 pathway of 5×FAD+/− mice; assay: Long-term potentiation / fEPSP recording in hippocampal slices from treated 5×FAD+/− mice; assay type: in vivo, mouse; conditions: 3.2 mg/kg/day for one month started at 2-3 months of age (before AD symptoms), slices at 3-4 months; vs DMSO
# Method: as §1, with “As reported (Oakley et al., 2006), there was an age-dependence of AD progression in the 5×FAD^+/− mice. No sex-dependent differences in AD progression in these mice was observed.” left out
# Schaffer collateral fibers were stimulated at the CA3 subfield to record field excitatory postsynaptic potentials (fEPSPs) in the CA1 stratum radiatum of transverse hippocampal slices ([…]) from all genotypes and drug-treated mice at different ages. After recovering at room temperature for 1 h (or 2 h for brain slices from drug-treated mice), hippocampal slices were allowed to recover in the recording chamber for additional 10 min. To evaluate basal synaptic transmission, different stimulation strengths (0 μA to 200 μA in steps of 20 μA) were applied and plotted fEPSP slopes versus the current input to compare the slope of input/output (I/O) curves of fEPSP. In the experiments that followed, stimulus current was adjusted so that fEPSP stabilized at 40-50% of maximum. Baseline was recorded for at least […] until the differences among fEPSP slopes were within 10%. Long-term potentiation (LTP) was induced using a tetanic high-frequency stimulation (HFS; 4 trains of 100 pulses at 100 Hz, with 20-sec intervals). Synaptic responses were recorded for at least 60 min after tetanization and quantified as the slope of the evoked fEPSP as percentage of the baseline.
# [4] = tested on: ryanodine receptor (RyR2); conditions: cited from earlier work
# oligomeric Aβ = conditions: chronic treatment, animal studies; cited from earlier work
# AD = conditions: racemic mixture at a dose of 25 mg per day, pilot clinical trial; cited from earlier work
structure (smiles),measurement,setting,value
Cn1c(=O)c2c(ncn2C)n(C)c1=O [Caffeine],Kv4.2-mediated current,[1],decreased
same,decay time (inactivation time constant Tau) of Kv4.2-mediated current,[1],decreased
same,voltage-dependent activation of Kv4.2-mediated current,[1],without altering
same,voltage-dependent inactivation of Kv4.2-mediated current,[1],without altering
O=C(Nc1cc(C(F)(F)F)cc(C(F)(F)F)c1)Nc1c(Br)cc(Br)cc1-c1nn[nH]n1 [NS5806],threshold current for inducing AP firing,[2]; before vs 15 min after perfusion,dramatically increased
same,frequency of AP firing,[2]; current injection-triggered,decreased
"COc1ccccc1OCCNCC(O)COc1cccc2[nH]c3ccccc3c12 (racemic) [Racemic carvedilol, carvedilol]","memory loss / learning and memory deficits (MWM, NOR)",5×FAD+/− mice,did not prevent
same,LTP impairment,[3],did not prevent
same,store-overload-induced Ca2+ release,[4],reduces
same,content of oligomeric Aβ in the brain,oligomeric Aβ,significantly reduced
same,improvement in AD,AD,no significant improvement
